For two molecules, Kd results are on record in publication PMC10987128, “A Natural Small Molecule Mitigates Kidney Fibrosis by Targeting Cdc42‐mediated GSK‐3β/β‐catenin Signaling” (Advanced Science, 2024).

Experiment [1] concerns the target T1, Cdc42 (cell division cycle 42) (Homo sapiens, UniProt P60953).
T1 construct: recombinant Cdc42 protein (230-00660-100, RayBio)
As to the kind of experiment: SPR (Biacore 8K, Cdc42 immobilized on CM5 chip), positive control. It is filed as binding. From the text: SPR (Biacore 8K, Cdc42 immobilized on CM5 chip), positive control on Cdc42 (cell division cycle 42) | We used ZCL278, a well‐known Cdc42 binding compound, as a positive control in SPR experiments

The target of experiment [2] is T1, Cdc42 (cell division cycle 42). As to the kind of experiment: SPR (Biacore 8K, Cdc42 immobilized on CM5 chip); supported by CETSA and TPP in NRK-49F cells. The experiment is classed as binding. For orientation: In SPR one partner is held on a chip, and binding of the other changes the refractive index at the surface.

T1 sequence (P60953 1-188): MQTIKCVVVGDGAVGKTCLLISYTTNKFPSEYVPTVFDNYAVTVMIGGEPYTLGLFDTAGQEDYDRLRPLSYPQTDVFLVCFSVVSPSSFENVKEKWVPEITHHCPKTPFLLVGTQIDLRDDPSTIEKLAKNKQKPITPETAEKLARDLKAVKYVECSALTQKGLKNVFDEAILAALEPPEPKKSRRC

In turn, `Cc1cc(C)nc(NS(=O)(=O)c2ccc(NC(=S)NC(=O)COc3ccc(Br)cc3Cl)cc2)n1` [ZCL278] returned an equilibrium dissociation constant (Kd) in experiment [1] of 18.6 µM.
In experiment [2], `C=C(C)[C@]12C[C@@H](C)[C@]34OC5(CCCCCCC[C@H](C)[C@@H]6[C@@H]3[C@@](O)(C(=O)[C@@]6(C)O)[C@H](O)[C@@]3(CO)O[C@H]3[C@H]4[C@H]1O5)O2` [compound 15, daphnepedunin A] came in with a Kd of 15.6 µM.

The Kd is the equilibrium constant for the complex coming apart. Higher therefore signals lower affinity.
